Laboratory results as given in patent US20060019987A1, “Methods and compositions for inhibiting, destroying, and/or inactivating viruses” (priority 2004, published 2006).

Key:
RSV (Long strain) = assay: Virucidal efficacy: syncytia formation by pretreated RSV in Hep-2 cell monolayers; format: cell-based; details: RSV pretreated 1 h at 35° C.; Hep-2 cells; two experiments (starting 10^7 PFU and 109 PFU); 0.05% CPC
Description: (§1) The experiments included human (hAd) serotypes of species B (hAd3), C (hAd5), and E (hAd4) and the long strain of RSV, representative of A. Two independent experiments were carried out for each virus.
One hundred microliters (μl) of each virus suspension containing 5×10^6 PFU or 5×10^5 PFU were subsequently used to infect monolayers of Hep-2 cells in quadruplicate in 24-well plates. […] Viral cytopathic effect was examined at 2 days post infection. One hundred μl of a dilution 1:10 of the original treated samples containing […] were used to infect additional wells (Block C: PBS-treated 1:10; E: SinoFresh® product-treated 1:10; G: CPC-treated 1:10).
A second independent experiment was carried out with a starting concentration of 10^9 PFU.

hAd4 (RI-67 strain) = assay: Virucidal efficacy: cytopathic effect of pretreated hAd4 in A549 cell monolayers; format: cell-based; details: hAd4 pretreated 1 h at 35° C.; 10^7 PFU (and 1:10 dilution); A549 lung epithelial cells; 2 days post infection; vs PBS-treated virus (marked CPE)
Description: as §1
Phosphate buffered saline (PBS) pretreatment of virus suspensions was used as a control.
After the 1-h incubation, 100 μl of the treated virus containing a total of 10^7 to 10^6 plaque forming units (PFU) of virus or their corresponding 1:10 or 1:100 dilutions were used to infect monolayers of A549 lung epithelial cells in quadruplicate 24-well plates. […] Viral cytopathic effect was examined at 2 days post infection. One hundred μl of a dilution 1:10 of the original treated samples containing 10^6 PFU were used to infect additional wells. (C: PBS-treated 1:10; E: SinoFresh® product-treated 1:10; G: CPC-treated 1:10).

Which results are given for CCCCCCCCCCCCCCCC[n+]1ccccc1 [CPC, 1-hexa-decyl pyridinium chloride]?
syncytia formation in infected monolayers (RSV (Long strain)): prevented syncytia formation; development of cytopathic effect (CPE) (hAd4 (RI-67 strain)): no obvious CPE
